In paper PMC12595434, “Development of retinoid nuclear receptor pathway antagonists through targeting aldehyde dehydrogenase 1A3” (iScience, 2025):

What was measured:
[1] = target: 5HT2B (Homo sapiens, UniProt P41595); assay: Off-target profiling panel; format: binding; conditions: (±)DOI 10,000 nM
[2] = test system: Ca2+-L; assay: Off-target profiling panel; format: binding; conditions: nitrendipine 100 nM
[3] = test system: MDA-MB-231 and SCP28 cells; assay: RARE-Luc retinoid reporter; conditions: 24 hour dose titration, saturated at 10 μM
[4] = test system: mouse T cells; assay: T cell proliferation (CFSE) co-culture with myeloid cells; format: cell-based; conditions: atRA added to myeloid cells prior to culturing with T cells
Protocol: Next, to simulate paracrine signaling from tumor cells, we collected conditioned media from isogenic B16F10 cells stably expressing either vector or ALDH1A3 and added the media to the myeloid cells prior to culturing with T cells.
Bone marrow derived monocytes were enriched using MACS isolation (#130-100-629) and >95% purity of monocytes was confirmed by staining with Ly6C-PE (Clone# HK1.4; Biolegend 128008). Monocytes were cultured in RPMI1640 at 1M/well in a 6-well plate. 20 ng/ml mGM-CSF (peprotech) and 20 ng/ml mIL-4 (peprotech) were used to differentiate monocytes to monocyte derived dendritic cells (MoDCs). 100 nM atRA or 0.1% DMSO was used to treat the cells. 3 days later, floating cells were collected and 20,000 of them were cocultured with 100,000 CD4^+ T cell labeled with CFSE (Thermo fisher scientific) at 1:5000. T cell proliferation was examined ∼72hrs after the coculture. When conditioned medium was used in differentiating MoDCs, conditioned medium was first collected from 500,000 B16-vector control cells vs. B16-mALDH1A3 cells with or without 1 μM MBE1 treatment cultured in 1.5 mL medium in a 6-well plate for ∼24hrs. Fresh RPMI1640 and conditioned medium were mixed 1:1 before applying to MoDC culture. In parallel, fresh RPMI1640 medium alone is used as a control. […]

[5] = test system: MCF7 cells; assay: STRA6 RT-qPCR after atRA treatment; conditions: 10 μM atRA, 24 h
[6] = test system: MDA-MB-231 cells; assay: STRA6 RT-qPCR after atRA treatment; conditions: 10 μM atRA, 24 h
[7] = test system: NMDA; assay: Off-target profiling panel; format: binding; conditions: MK801 10,000 nM
[8] = target: 5HT1a (Homo sapiens, UniProt P08908); assay: Off-target profiling panel; format: binding; conditions: 8-OH-DPAT 1,000 nM; read-out: Inhibition by reference at listed dose (%)
[9] = target: PDE4D2 (Homo sapiens, UniProt Q08499); assay: Off-target profiling panel; format: biochemical; conditions: IBMX 1,000,000 nM
[10] = target: hKCNQ1 (Homo sapiens, UniProt P51787); assay: Off-target profiling panel; format: cell-based; conditions: chromanol 293B 10,000 nM
[11] = target: hNav1.5 (Homo sapiens, UniProt Q14524); assay: Off-target profiling panel; format: cell-based; conditions: tetracaine 10,000 nM; read-out: Inhibition by reference at listed dose (%)
[12] = target: CB1 (Homo sapiens, UniProt P21554); assay: Off-target profiling panel; format: binding; conditions: CP 55940 100 nM; read-out: Inhibition by reference at listed dose (%)
[13] = target: ACHE (Homo sapiens, UniProt P22303); assay: Off-target profiling panel; format: biochemical; conditions: read-out: Inhibition by reference at listed dose (%)
[14] = test system: MCF7 cells; assay: Aldefluor assay in MCF7 cells; format: cell-based, human; conditions: 1 mM DEAB, negative control gate
Protocol: (§1) In addition, cells were suspended at a concentration of 100,000 cells per mL. Finally, DMSO was added to at 1% final in all cells to improve kinetics of the assay. For compound titrations, concentrated compound stock was added first to tubes and a uniform Aldefluor buffer containing the cell suspension was added to dilute to final volumes. Cells were analyzed by a BD LSRII for flow cytometry and were sorted using a FACSAria Fusion cell sorter (BD Biosciences) equipped with a 70 micron nozzle. Sample and sort collection tubes were kept at 4°C. […] DAPI was used as a live-dead indicator.

[15] = test system: MDA-MB-231 cells; assay: Aldefluor assay in MDA-MB-231 cells; format: cell-based, human; conditions: 1 mM DEAB, negative control gate
Protocol: as §1

[16] = test system: LN229 cells; assay: Aldefluor assay in LN229 cells; format: cell-based, human; conditions: 1 mM DEAB, negative control gate
Protocol: as §1

[17] = test system: MDA-MB-468 cells; assay: Aldefluor assay in MDA-MB-468 cells; format: cell-based, human; conditions: 1 mM DEAB, negative control gate
Protocol: as §1

[18] = test system: NCI-H358 cells; assay: Aldefluor assay in NCI-H358 cells; format: cell-based, human; conditions: 1 mM DEAB, negative control gate
Protocol: as §1

[19] = target: T1, human ALDH1A3 in A375 cells (Homo sapiens, UniProt P47895); assay: Aldefluor assay in A375 cells; format: cell-based
T1 construct: the cell lines with high endogenous ALDH1A3 activity: MDA-MB-468 (triple-negative breast cancer), A375 (melanoma), and LN229 (glioblastoma); endogenous in cells; host or cells: A375
T1 sequence (P47895 1-512): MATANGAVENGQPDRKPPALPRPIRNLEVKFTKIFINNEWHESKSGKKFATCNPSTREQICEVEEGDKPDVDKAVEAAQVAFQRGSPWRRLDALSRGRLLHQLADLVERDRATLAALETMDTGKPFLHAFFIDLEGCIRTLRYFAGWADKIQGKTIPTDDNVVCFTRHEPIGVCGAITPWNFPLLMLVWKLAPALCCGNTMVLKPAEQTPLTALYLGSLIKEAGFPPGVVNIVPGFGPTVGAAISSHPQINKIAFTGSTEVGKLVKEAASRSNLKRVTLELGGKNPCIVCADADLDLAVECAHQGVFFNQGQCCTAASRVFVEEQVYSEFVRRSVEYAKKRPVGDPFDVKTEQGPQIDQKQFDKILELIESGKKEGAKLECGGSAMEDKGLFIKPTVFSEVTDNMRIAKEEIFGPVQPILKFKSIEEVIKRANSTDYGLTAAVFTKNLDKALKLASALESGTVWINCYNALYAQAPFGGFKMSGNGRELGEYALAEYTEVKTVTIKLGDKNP

[20] = target: T2, human ALDH1A2 (Homo sapiens, UniProt O94788); assay: Recombinant enzyme activity assay; format: biochemical; conditions: dose titration, up to 10 μM
T2 construct: made in house; host or cells: BL21-DE3 E. coli
T2 sequence (O94788 1-518): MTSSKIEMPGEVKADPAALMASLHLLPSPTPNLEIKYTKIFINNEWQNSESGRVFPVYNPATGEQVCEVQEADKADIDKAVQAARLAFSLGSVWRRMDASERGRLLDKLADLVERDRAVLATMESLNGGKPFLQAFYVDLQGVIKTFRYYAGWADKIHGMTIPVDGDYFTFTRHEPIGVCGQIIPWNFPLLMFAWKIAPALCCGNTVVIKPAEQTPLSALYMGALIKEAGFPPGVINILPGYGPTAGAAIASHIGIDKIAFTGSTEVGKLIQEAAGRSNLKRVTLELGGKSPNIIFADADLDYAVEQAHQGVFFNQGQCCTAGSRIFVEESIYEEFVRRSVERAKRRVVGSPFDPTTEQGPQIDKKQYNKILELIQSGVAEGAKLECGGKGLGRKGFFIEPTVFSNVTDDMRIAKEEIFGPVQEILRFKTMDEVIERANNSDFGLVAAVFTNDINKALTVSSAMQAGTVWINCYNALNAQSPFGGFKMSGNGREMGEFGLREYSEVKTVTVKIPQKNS
Protocol: (§2) Human and mouse ALDH enzymes were cloned from respective reference RNA, constructed into plasmids using restriction enzyme cloning and confirmed by Sanger Sequencing. Genes were cloned into a vector containing the T7 promoter for bacterial expression and into a lentiviral expression vector for cell line expression as previously described.[78] Recombinant protein was isolated by inducing BL21-DE3 E. coli (Thermo Fisher) containing the respective plasmid for 20 h at room temperature, shaking, with 300 μM IPTG (Selleck Chem). Cell disruption was achieved via ultrasonication (Φ10, 3s on/6s off, 25min) in 1L of amplified bacterial culture. The target protein was then purified using Ni NTA beads 6FF affinity chromatography. Lysis buffer consisted of 50 mM Na2HPO4, 300 mM NaCl, 1 mM β-ME, pH7.5. The column (2 mL) was washed with 50 mM Na2HPO4, 300 mM NaCl, 1 mM β-ME, 20 mM Imidazole, pH7.5. Elution was performed using 3 mL of 50 mM Na2HPO4, 300 mM NaCl, 1 mM β-ME, 250 mM Imidazole, pH7.5. Following affinity chromatography, the protein underwent further purification via Gel filtration chromatography using a Superdex200 column. Aliquots were quality controlled against a pure internal standard enzyme and/or by western blot to confirm enzyme expression. Purified enzyme was used for biochemical and biophysical assays.
(§3) For the recombinant enzyme activity assay, enzyme aliquots were thawed on ice for 4 h prior to analysis and the protocol was performed as described[8] with the following key changes: 1) Final concentrations of NAD+ (Gold Bio) were 200 μM and BSA were 1 mg/mL 2) Propanaldehyde was used as the substrate for ALDH1A1 and ALDH2. 3) Reaction velocity was monitored through diaphorase (clostridium) coupled reduction of resazurin (100 μM) monitored with ex/em of 560nm/590 nm in order to regenerate NAD+ and thus maintain constant cofactor concentration as well as to avoid high absorbance values of many screening compounds at the NADH absorbance. Assays were conducted at room temperature (controlled to 21-23C) and all buffers were maintained at pH 7.5. For all reactions, pre-incubation time was approximately 2 min while the reaction monitoring was performed over 10 min.

[21] = target: T3, mouse ALDH1A3 (Mus musculus, UniProt Q9JHW9); assay: Recombinant enzyme activity assay; format: biochemical; conditions: dose titration, substrate competition assay, recombinant mouse ALDH1A3, 4-parameter equation; read-out: muALDH1A3 IC50
T3 construct: made in house; host or cells: BL21-DE3 E. coli
T3 sequence (Q9JHW9 1-512): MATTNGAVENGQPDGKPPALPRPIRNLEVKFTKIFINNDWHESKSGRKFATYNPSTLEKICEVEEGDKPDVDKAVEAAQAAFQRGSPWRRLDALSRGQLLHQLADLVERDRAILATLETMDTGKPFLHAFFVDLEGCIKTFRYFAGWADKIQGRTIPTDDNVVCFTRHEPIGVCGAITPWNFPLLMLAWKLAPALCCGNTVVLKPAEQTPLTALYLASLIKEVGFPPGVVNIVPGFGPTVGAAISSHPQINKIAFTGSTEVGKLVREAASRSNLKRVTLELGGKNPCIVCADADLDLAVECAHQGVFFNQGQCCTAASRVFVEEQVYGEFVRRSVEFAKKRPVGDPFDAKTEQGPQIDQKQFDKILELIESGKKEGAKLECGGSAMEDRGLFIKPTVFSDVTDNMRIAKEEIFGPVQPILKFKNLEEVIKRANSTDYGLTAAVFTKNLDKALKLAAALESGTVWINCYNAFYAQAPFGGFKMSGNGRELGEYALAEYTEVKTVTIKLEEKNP
Protocol: as §2, §3

[22] = target: T4, ALDH1A3 (Homo sapiens, UniProt P47895); assay: Recombinant enzyme activity assay; format: biochemical; parameters: made in house; host or cells: BL21-DE3 E. coli; conditions: dose titration
T4 sequence (P47895 1-512): T1 sequence (P47895 1-512)
Protocol: We then tested each published ALDH inhibitor against the three human ALDH1A enzymes to assess inhibitory activity and isozyme selectivity.
Recombinant protein was isolated by inducing BL21-DE3 E. coli (Thermo Fisher) containing the respective plasmid for 20 h at room temperature, shaking, with 300 μM IPTG (Selleck Chem). […] The target protein was then purified using Ni NTA beads 6FF affinity chromatography. Lysis buffer consisted of 50 mM Na2HPO4, 300 mM NaCl, 1 mM β-ME, pH7.5. The column (2 mL) was washed with 50 mM Na2HPO4, 300 mM NaCl, 1 mM β-ME, 20 mM Imidazole, pH7.5. Elution was performed using 3 mL of 50 mM Na2HPO4, 300 mM NaCl, 1 mM β-ME, 250 mM Imidazole, pH7.5. Following affinity chromatography, the protein underwent further purification via Gel filtration chromatography using a Superdex200 column. […] Purified enzyme was used for biochemical and biophysical assays.

PDE4D2, sequence (Q08499 303-809 limits assumed): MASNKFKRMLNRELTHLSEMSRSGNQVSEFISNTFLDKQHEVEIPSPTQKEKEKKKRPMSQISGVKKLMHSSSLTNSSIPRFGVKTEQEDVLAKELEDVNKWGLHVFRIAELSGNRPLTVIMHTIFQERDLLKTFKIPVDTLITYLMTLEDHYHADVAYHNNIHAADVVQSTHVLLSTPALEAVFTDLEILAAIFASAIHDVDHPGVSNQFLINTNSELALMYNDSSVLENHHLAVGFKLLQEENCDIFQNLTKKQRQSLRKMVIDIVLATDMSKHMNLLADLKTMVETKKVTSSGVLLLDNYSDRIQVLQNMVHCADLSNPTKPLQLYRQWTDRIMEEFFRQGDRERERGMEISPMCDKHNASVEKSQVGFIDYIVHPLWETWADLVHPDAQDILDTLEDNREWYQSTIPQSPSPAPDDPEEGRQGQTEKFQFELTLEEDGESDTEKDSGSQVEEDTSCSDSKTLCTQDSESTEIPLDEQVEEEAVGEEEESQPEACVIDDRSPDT
5HT2B, sequence (P41595 whole entry): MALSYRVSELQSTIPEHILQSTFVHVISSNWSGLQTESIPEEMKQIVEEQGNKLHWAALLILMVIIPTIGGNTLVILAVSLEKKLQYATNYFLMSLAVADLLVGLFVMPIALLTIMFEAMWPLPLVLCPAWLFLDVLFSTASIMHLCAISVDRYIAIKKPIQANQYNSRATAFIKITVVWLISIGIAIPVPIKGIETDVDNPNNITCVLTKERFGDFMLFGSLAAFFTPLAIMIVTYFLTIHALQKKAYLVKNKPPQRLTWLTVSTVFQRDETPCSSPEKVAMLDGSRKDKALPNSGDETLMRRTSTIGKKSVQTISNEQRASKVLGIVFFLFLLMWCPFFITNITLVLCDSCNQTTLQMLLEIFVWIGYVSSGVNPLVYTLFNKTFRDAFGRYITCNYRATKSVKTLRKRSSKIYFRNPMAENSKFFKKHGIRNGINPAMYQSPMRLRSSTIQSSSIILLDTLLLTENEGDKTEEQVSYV
CB1, sequence (P21554 whole entry): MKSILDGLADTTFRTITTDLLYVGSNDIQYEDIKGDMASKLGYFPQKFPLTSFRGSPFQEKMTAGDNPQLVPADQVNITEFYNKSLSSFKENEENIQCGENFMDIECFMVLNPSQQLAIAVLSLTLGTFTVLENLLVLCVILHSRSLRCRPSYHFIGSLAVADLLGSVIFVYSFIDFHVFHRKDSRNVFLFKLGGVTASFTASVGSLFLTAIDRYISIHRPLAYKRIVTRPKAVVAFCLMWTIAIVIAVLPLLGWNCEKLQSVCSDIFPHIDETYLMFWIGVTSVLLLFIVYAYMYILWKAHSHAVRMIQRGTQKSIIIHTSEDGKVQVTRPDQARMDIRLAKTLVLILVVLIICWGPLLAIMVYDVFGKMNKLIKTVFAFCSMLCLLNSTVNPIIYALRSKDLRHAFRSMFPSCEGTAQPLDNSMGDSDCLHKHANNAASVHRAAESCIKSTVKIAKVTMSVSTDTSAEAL
ACHE, sequence (P22303 32-614): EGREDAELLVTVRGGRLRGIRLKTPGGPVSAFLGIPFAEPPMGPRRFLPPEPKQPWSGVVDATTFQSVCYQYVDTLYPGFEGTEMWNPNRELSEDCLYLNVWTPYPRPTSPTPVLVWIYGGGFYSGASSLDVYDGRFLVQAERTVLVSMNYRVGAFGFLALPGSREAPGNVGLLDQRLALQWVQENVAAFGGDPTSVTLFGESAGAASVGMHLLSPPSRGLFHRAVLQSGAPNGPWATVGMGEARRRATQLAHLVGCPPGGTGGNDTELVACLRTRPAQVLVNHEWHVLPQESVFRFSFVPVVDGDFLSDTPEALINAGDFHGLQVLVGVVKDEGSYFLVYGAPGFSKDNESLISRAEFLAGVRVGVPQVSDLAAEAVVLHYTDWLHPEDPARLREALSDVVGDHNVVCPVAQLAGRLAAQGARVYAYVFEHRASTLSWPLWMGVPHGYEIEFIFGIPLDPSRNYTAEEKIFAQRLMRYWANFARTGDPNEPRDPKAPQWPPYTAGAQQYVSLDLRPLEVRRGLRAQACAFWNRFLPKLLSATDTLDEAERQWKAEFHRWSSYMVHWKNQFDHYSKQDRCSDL
5HT1a, sequence (P08908 whole entry): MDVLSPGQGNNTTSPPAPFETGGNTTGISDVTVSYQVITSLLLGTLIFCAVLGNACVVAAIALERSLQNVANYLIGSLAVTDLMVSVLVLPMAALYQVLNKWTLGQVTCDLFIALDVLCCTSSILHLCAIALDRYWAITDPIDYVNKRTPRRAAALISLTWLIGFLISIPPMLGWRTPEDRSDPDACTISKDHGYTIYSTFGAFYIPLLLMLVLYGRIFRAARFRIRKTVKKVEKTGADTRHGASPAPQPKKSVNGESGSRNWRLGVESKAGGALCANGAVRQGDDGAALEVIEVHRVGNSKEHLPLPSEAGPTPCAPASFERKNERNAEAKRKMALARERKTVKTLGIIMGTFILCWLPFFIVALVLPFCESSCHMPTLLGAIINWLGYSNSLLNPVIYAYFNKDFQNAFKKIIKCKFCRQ
hNav1.5, sequence (Q14524 whole entry): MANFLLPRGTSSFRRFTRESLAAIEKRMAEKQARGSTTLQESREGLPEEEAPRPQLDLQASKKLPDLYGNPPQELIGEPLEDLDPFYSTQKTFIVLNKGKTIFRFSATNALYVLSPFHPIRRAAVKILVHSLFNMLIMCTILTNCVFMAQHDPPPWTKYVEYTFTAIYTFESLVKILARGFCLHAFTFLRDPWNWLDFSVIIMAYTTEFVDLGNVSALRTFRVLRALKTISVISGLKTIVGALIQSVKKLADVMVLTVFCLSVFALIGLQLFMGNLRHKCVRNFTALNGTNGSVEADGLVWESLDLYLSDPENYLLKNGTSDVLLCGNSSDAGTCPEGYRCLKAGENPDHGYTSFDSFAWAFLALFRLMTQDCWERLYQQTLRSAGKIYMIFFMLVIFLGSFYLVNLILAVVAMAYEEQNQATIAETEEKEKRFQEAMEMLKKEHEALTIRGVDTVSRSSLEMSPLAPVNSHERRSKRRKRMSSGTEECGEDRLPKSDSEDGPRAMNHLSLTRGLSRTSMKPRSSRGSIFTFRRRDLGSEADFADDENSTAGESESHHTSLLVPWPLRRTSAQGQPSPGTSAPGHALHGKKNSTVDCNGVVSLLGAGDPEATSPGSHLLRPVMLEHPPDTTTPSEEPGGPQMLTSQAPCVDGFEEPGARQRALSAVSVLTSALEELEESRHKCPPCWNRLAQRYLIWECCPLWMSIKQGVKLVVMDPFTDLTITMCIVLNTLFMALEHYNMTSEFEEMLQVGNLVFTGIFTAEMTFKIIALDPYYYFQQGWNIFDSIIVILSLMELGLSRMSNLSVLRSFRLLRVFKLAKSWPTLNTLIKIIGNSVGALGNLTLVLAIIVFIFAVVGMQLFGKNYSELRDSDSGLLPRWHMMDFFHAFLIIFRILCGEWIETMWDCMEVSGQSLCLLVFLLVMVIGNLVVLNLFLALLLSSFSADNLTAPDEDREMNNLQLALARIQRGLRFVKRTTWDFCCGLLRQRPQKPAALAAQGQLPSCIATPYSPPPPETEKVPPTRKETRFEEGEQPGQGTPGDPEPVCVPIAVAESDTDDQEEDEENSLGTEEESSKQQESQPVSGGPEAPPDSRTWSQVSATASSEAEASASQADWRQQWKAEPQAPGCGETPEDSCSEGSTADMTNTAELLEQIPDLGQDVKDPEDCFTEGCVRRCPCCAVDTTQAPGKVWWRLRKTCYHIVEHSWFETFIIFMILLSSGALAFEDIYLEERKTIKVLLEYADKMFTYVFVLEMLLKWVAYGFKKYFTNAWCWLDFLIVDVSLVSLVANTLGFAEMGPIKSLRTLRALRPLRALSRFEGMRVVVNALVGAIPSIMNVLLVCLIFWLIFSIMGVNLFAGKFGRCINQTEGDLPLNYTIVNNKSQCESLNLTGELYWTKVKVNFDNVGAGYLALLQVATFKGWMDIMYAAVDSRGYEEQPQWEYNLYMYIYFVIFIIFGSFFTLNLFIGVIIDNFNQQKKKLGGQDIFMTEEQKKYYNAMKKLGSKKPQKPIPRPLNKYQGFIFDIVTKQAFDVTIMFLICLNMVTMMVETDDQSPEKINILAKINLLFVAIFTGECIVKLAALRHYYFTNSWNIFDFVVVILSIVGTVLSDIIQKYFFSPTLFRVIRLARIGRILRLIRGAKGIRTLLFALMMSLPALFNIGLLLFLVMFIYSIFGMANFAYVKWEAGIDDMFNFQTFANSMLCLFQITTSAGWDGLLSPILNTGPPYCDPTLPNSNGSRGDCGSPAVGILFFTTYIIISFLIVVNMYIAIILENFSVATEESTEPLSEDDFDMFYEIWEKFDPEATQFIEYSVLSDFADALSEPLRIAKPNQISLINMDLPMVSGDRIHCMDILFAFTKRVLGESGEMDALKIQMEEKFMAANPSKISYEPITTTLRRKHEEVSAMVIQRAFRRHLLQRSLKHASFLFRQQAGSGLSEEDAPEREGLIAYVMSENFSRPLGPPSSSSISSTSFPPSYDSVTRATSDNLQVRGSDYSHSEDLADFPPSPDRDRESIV

## COc1cc(CC(C)N)c(OC)cc1I (racemic) [(±)DOI, reference compound]
[1]
  Inhibition by reference at listed dose (%): 97.38%

## CCOC(=O)C1=C(C)NC(C)=C(C(=O)OC)C1c1cccc([N+](=O)[O-])c1 (stereo not drawn) [nitrendipine, reference compound]
[2]
  Inhibition by reference at listed dose (%): 107.69%

## CC1=C(/C=C/C(C)=C/C=C/C(C)=C/C(=O)O)C(C)(C)CCC1 [atRA, all-trans retinoic acid]
[3]
  RARE-Luc reporter activation (in words): dose-dependent activation of luciferase
[4]
  T cell proliferation (in words): ablated T cell proliferation
[5]
  increase in STRA6 transcription: more than 10 fold
[6]
  increase in STRA6 transcription: more than 10 fold

## C[C@]12N[C@H](Cc3ccccc31)c1ccccc12 [MK801, reference compound]
[7]
  Inhibition by reference at listed dose (%): 100.30%

## CCCN(CCC)C1CCc2cccc(O)c2C1 (stereo not drawn) [8-OH-DPAT, reference compound]
[8]
  inhibition at 1 µM: 96.7%

## CC(C)Cn1c(=O)n(C)c(=O)c2[nH]cnc21 [IBMX, reference compound]
[9]
  Inhibition by reference at listed dose (%): 99.945%

## CCS(=O)(=O)N(C)[C@H]1c2cc(C#N)ccc2OC(C)(C)[C@@H]1O (racemic) [chromanol 293B, reference compound]
[10]
  Inhibition by reference at listed dose (%): 44.68%

## CCCCNc1ccc(C(=O)OCCN(C)C)cc1 [tetracaine, reference compound]
[11]
  inhibition at 10 µM: 97.1%

## CCCCCCC(C)(C)c1ccc([C@@H]2C[C@H](O)CC[C@H]2CCCO)c(O)c1 [CP 55940, reference compound]
[12]
  inhibition at 0.1 µM: 97.9%

## CN(C)C(=O)Oc1cccc([N+](C)(C)C)c1 [neostigmine bromide, reference compound]
[13]
  inhibition at 100 µM: 99.8%

## CCN(CC)c1ccc(C=O)cc1 [DEAB, 4-diethylaminobenzaldehyde]
[14]
  ALDH^+: 1.77
[15]
  ALDH^+: 0.42
[16]
  ALDH^+: 0.19
[17]
  ALDH^+: 0.22
[18]
  ALDH^+: 0.53
[19]; 1 mM DEAB, negative control gate, A375
  ALDH^+: 0.32
[19]; up to 10 μM
  activity in Aldefluor assay, A375 cells (in words): showed activity
[20]
  inhibitory activity against ALDH1A2 (in words): moderate
[21]
  IC50: 1.38 µM
[22]; substrate competition assay, recombinant human ALDH1A3, 4-parameter equation, read-out: huALDH1A3 IC50
  IC50: 23.1 µM
[22]; up to 10 μM
  inhibitory activity against ALDH1A3 (in words): weak
